Laboratory results taken from PMC7351850 (European Journal of Clinical Pharmacology, 2020).
Values belong to the compound of their own block, whether it stands above or below them.

Columns and labels:
[1] = clinical; conditions: male, human, plasma, po, 750 mg, metformin 750 mg single dose alone, fed, n=24; for AUC(0-inf): Plasma AUCinf of metformin; for Cmax: Plasma Cmax of metformin
Experimental: (§5) Subjects were admitted to hospital on Day 1 and were discharged on Day 12. […] On Day 3 and Days 5–11, subjects received peficitinib 150 mg (150 mg × 1 tablet), once daily. Subjects returned for an end-of-study examination on Day 15 ± 2.
(§6) The planned sample size was 24 subjects, based on the precedent set by other PK studies of a similar nature [21, 22]. The safety analysis set (SAF) consisted of all subjects who received at least one dose of study drug. The PK analysis set (PKAS) consisted of subjects who received the study drug and provided at least one estimable PK parameter. Plasma PK parameters were calculated by non-compartmental analysis using Phoenix(R) WinNonlin(R) software, version 6.2 (Certara USA, Inc., Princeton, NJ, USA). Baseline demographic and other characteristics, vital signs, clinical laboratory findings, 12-lead ECG results and TEAEs were summarised for the SAF using descriptive statistics.
(§7) Statistical analyses were performed using SAS(R) software, version 9.4 (SAS Institute Inc., Cary, NC, USA). […] The least-square (LS) geometric mean ratio (GMR) and its 90% confidence interval (CI) were calculated using the exponential-transformed LS geometric mean difference and CI. Missing data were not imputed or used for analyses.

[2] = metformin 750 mg single dose alone, fed, n=24
Experimental: as §5, §6, §7

[3] = target: T1, OCT2 (Homo sapiens, UniProt O15244); experiment: Inhibition of [14C]metformin uptake into OCT2-expressing HEK293 cells; assay type: cell-based
T1 construct: containing full-length human transporter cDNA; host or cells: HEK293
T1 sequence (O15244 1-555): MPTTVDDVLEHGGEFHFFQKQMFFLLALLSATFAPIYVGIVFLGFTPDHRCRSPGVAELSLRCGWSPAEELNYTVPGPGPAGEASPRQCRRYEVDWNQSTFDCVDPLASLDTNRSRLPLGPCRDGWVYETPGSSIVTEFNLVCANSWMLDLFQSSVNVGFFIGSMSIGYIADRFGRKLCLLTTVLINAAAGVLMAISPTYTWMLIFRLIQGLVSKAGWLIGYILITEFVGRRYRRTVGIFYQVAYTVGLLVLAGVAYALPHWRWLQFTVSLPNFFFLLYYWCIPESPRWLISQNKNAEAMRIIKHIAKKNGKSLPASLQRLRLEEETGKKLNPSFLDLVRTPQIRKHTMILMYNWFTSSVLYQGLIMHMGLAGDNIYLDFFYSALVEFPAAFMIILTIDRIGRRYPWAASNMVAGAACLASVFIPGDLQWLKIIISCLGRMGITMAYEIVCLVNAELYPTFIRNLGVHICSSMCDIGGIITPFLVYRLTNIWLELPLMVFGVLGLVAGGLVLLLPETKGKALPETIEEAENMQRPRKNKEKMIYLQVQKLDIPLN
Excerpt: (§1) Human embryonic kidney (HEK293) cells expressing OCT1, OCT2, MATE1 and MATE2-K were established at the ADME & Tox. Research Institute (Sekisui Medical Co., Ltd, Ibaraki, Japan) by transfection of a pcDNA vector (Invitrogen, Carlsbad, CA, USA) containing full-length human transporter cDNA. Control HEK293 cells were established by transfection of the empty vector. The expression level of transporter mRNA in transfected cells was verified periodically by real-time polymerase chain reaction. […] The cells were maintained at 37 °C with 5% CO2 in DMEM containing 10% FBS with antibiotic-antimycotics and L-glutamine.
(§2) Assays were performed in triplicate. […]
(§3) After incubation, the test solution was removed, and the cells were washed once with ice-cold 0.2% bovine serum albumin in phosphate-buffered saline (PBS) and twice with 1 mL of ice-cold PBS. […] After the cell lysate was mixed by pipetting, 0.3 mL (OCT1, OCT2, and MATE1) or 0.5 mL (MATE2-K) of the lysate was collected into a glass vial and mixed with 10 mL of the scintillator Hionic-fluor (PerkinElmer, Inc., Waltham, MA, USA) to measure the radioactivity using a liquid scintillation counter (2500TR [PerkinElmer, Inc.]).
(§4) Protein content was measured using the BCA Protein Assay Kit (Thermo Fisher Scientific, Inc., Waltham, MA, USA, or Pierce, Rockford, IL, USA) in accordance with the manufacture’s recommendations. […]

[4] = target: T2, MATE2-K (Homo sapiens, UniProt Q86VL8); experiment: Inhibition of [14C]metformin uptake into MATE2-K-expressing HEK293 cells; assay type: cell-based
T2 construct: containing full-length human transporter cDNA; expressed in transfected cells; host or cells: HEK293 (transient transfection)
T2 sequence (Q86VL8 1-566 isoform Q86VL8-3): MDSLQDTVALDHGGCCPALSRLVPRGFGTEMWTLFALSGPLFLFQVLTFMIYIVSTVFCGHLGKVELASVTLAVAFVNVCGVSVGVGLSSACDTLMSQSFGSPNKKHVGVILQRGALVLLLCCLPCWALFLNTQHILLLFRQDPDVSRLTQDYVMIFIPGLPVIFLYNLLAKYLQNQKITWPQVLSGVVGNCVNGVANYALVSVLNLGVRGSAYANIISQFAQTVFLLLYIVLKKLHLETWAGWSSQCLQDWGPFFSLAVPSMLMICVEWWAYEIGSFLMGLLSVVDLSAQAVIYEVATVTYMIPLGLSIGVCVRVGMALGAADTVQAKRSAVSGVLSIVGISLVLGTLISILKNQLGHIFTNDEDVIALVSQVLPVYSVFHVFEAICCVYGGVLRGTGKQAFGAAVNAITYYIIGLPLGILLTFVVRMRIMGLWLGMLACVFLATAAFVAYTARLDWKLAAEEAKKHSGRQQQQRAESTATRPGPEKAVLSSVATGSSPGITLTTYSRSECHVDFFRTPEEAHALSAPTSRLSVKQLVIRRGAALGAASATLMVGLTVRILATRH
Excerpt: as §1, §2, §3, §4

[5] = Clinical drug-drug interaction study: safety (treatment-emergent adverse events); assay type: in vivo, healthy male subjects
Experimental: Safety assessments were undertaken from screening through to the final study assessment. Safety was assessed by the monitoring of adverse events, vital signs (supine blood pressure, supine pulse and axillary temperature), clinical laboratory tests (haematology, biochemistry and urinalysis) and 12-lead electrocardiograms (ECGs).
TEAEs were graded using the National Cancer Institute’s Common Terminology Criteria for Adverse Events (NCI CTCAE) guidelines (version 4.0).

[6] = target: T3, OCT1 (Homo sapiens, UniProt O15245); experiment: Inhibition of [14C]metformin uptake into OCT1-expressing HEK293 cells; assay type: cell-based
T3 construct: containing full-length human transporter cDNA; host or cells: HEK293
T3 sequence (O15245 1-554): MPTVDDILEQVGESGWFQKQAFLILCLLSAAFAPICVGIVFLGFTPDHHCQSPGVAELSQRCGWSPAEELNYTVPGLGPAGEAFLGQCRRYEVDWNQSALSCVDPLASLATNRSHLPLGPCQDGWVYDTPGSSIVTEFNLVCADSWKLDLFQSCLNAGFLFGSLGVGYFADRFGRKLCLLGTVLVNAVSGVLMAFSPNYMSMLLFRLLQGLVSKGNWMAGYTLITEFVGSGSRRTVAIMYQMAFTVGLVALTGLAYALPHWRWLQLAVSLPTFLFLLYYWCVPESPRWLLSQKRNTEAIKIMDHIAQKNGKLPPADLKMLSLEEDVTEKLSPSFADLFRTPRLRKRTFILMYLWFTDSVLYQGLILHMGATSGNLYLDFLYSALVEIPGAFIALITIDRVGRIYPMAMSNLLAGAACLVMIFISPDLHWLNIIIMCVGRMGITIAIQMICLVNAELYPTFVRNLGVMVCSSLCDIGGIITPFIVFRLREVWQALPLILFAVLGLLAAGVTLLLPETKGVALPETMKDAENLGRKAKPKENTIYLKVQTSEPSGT
Excerpt: as §1, §2, §3, §4

[7] = cited from earlier work
[8] = set-up: method as in earlier work; conditions: cited from earlier work
[9] = Earlier clinical pharmacokinetic and mass balance studies of peficitinib; assay type: in vivo, healthy subjects; conditions: single oral dose of 150 mg, fasted; calculated from 524.5 ng/mL assuming 72.83% protein bound
[10] = target: T4, MATE1 (Homo sapiens, UniProt Q96FL8); experiment: Inhibition of [14C]metformin uptake into MATE1-expressing HEK293 cells; assay type: cell-based
T4 construct: containing full-length human transporter cDNA; host or cells: HEK293
T4 sequence (Q96FL8 1-570): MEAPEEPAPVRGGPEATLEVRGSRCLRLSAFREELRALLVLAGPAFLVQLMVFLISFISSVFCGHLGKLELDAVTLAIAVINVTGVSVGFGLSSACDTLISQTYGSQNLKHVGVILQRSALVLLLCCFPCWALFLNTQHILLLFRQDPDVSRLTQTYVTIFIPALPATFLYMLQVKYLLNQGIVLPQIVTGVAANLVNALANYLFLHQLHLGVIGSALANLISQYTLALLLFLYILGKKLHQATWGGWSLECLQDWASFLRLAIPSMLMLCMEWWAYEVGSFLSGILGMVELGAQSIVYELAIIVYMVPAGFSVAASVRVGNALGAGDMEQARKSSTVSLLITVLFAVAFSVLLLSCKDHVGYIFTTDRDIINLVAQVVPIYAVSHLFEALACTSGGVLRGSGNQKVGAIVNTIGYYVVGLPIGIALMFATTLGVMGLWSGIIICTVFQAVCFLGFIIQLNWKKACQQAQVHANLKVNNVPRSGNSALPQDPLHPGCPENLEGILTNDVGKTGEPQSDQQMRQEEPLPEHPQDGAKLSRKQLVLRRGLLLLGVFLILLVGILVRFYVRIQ
Excerpt: as §1, §2, §3, §4

[11] = single oral dose of [14C]peficitinib, six healthy male subjects

AUC(0-inf) ([1]; median): 9050 ng·h/mL
AUC(0-inf) ([1]; min-max): 6820 to 12500 ng·h/mL
Cmax ([1]; mean (SD)): 1380 ng/mL
Cmax ([1]; median): 1380 ng/mL
Cmax ([1]; min-max): 973 to 2030 ng/mL
CL/F of metformin, mean (SD) [2]: 83.6 (12.5) L/h
CL/F of metformin, median [2]: 82.9 L/h
CL/F of metformin, min-max [2]: 60.2 to 110 L/h
Plasma AUClast of metformin, mean (SD) [2]: 9050 (1410) ng∙h/mL
Plasma AUClast of metformin, median [2]: 8990 ng·h/mL
Urine Aelast% of metformin, mean (SD) [2]: 38.6 (3.77) %
Urine Aelast% of metformin, median [2]: 37.7%
Urine Aelast% of metformin, min-max [2]: 33.0–49.8%
tmax of metformin, median [2]: 3.00 h
Structure (SMILES): CN(C)C(=N)N=C(N)N [Metformin]

IC50 [3]: 71.4 µM
IC50 [4]: 20.8 µM
IC50 [6]: 0.247 µM
Cmax of unbound peficitinib [9]: 440 nM
IC50 [10]: 10 µM
Structure (SMILES): NC(=O)c1cnc2[nH]ccc2c1N[C@@H]1[C@@H]2CC3C[C@H]1C[C@@](O)(C3)C2 [Peficitinib]
Tolerability ([5]; peficitinib 150 mg, metformin 750 mg, no serious TEAEs or TEAEs leading to treatment withdrawal): generally well tolerated
Subjects with TEAEs ([5]; peficitinib alone phase, 150 mg once daily, 3/24 subjects, four mild (Grade 1) TEAEs, all considered drug related): 12.5%
Increased aspartate aminotransferase, subjects ([5]; peficitinib alone phase, 1/24): 4.2%
Soft faeces, subjects ([5]; peficitinib alone phase, 1/24): 4.2%
Increased alanine aminotransferase, subjects ([5]; peficitinib alone phase, 2/24): 8.3%
Urinary excretion, share of an oral dose ([7]; single and multiple doses, healthy subjects, two Phase I trials): 9–15%
Cmax of peficitinib ([7]; single oral dose of 150 mg, fasted conditions): 524.5 ng/mL
Share of the peficitinib dose absorbed ([7]; single oral dose of [14C]peficitinib, six healthy male subjects, assuming stability in the gastrointestinal tract): approximately 64%
Mean faecal excretion as unchanged peficitinib, share of administered dose [7, 11]: 29.8%
Mean recovery in faeces [7, 11]: 56.6%
Mean recovery in urine [7, 11]: 36.8%
Protein bound [8]: 72.83%

[14C]metformin uptake into MATE2-K-expressing cells, % of uptake in the absence of inhibitors ([4]; typical inhibitor, cimetidine 100 μmol/L): 8.2–15.1%
[14C]metformin uptake into MATE1-expressing cells, % of uptake in the absence of inhibitors ([10]; typical inhibitor, cimetidine 10 μmol/L): 11.9–14.7%
Structure (SMILES): CN/C(=N/CCSCc1nc[nH]c1C)NC#N [cimetidine, reference compound]
